Laboratory results taken from PubChem BioAssay AID330 (DTP/NCI, 2004).
Where “and” joins values, the source holds several entries; their conditions need not be identical. Equal values may be shown once. Toxic doses and inconclusive results are not listed.

System: P388 leukemia ip, CD2F1 mice, survival T/C
Assay: NCI In Vivo Anticancer Drug Screen. Data for tumor model P388 Leukemia (intraperitoneal) in CD2F1 (CDF1) mice
Conditions: endpoint: median survival time, higher = longer survival
Procedure, shortened: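 Mice carrying the transplanted tumor received test compound or vehicle. Survival was recorded in each group, and the value is the treated-group measurement divided by that of the vehicle-treated control group.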

[1] = dose: 100.0 mg/kg/injection, schedule: Q04DX002 (ip), vehicle: saline with Tween-80
[2] = dose: 200.0 mg/kg/injection, schedule: Q04DX002 (ip), vehicle: saline with Tween-80
[3] = dose: 400.0 mg/kg/injection, schedule: Q04DX002 (ip), vehicle: saline with Tween-80
[4] = dose: 50.0 mg/kg/injection, schedule: Q01DX009 (ip), vehicle: saline
[5] = dose: 100.0 mg/kg/injection, schedule: Q01DX009 (ip), vehicle: saline
[6] = dose: 200.0 mg/kg/injection, schedule: Q01DX009 (ip), vehicle: saline
[7] = dose: 50.0 mg/kg/injection, schedule: Q01DX005 (ip), vehicle: saline with Tween-80
[8] = dose: 100.0 mg/kg/injection, schedule: Q01DX005 (ip), vehicle: saline with Tween-80
[9] = dose: 200.0 mg/kg/injection, schedule: Q01DX005 (ip), vehicle: saline with Tween-80
[10] = dose: 60.0 mg/kg/injection, schedule: Q01DX005 (ip), vehicle: Klucel (hydroxypropylcellulose) (HPC)
[11] = dose: 120.0 mg/kg/injection, schedule: Q01DX005 (ip), vehicle: Klucel (hydroxypropylcellulose) (HPC)
[12] = dose: 50.0 mg/kg/injection, schedule: Q01DX005 (ip), vehicle: saline
[13] = dose: 100.0 mg/kg/injection, schedule: Q01DX005 (ip), vehicle: saline
[14] = dose: 50.0 mg/kg/injection, schedule: Q01DX009 (ip), vehicle: Klucel (hydroxypropylcellulose) (HPC)
[15] = dose: 100.0 mg/kg/injection, schedule: Q01DX009 (ip), vehicle: Klucel (hydroxypropylcellulose) (HPC)
[16] = dose: 200.0 mg/kg/injection, schedule: Q01DX009 (ip), vehicle: Klucel (hydroxypropylcellulose) (HPC)

`C/C(=N\N=C(N)N)c1ccc2c(c1)Cc1cc(/C(C)=N/N=C(N)N)ccc1-2` was tested, and the T/C (dose: 3.12 mg/kg/injection, schedule: Q04DX002 (ip), vehicle: saline with Tween-80) was 100 % of control and 107 % of control, the T/C (dose: 6.25 mg/kg/injection, schedule: Q04DX002 (ip), vehicle: saline with Tween-80) was 107 % of control and 108 % of control and the T/C (dose: 12.5 mg/kg/injection, schedule: Q04DX002 (ip), vehicle: saline with Tween-80) was 115 % of control (2×) and 122 % of control. For the same molecule, the T/C (dose: 25.0 mg/kg/injection, schedule: Q04DX002 (ip), vehicle: saline with Tween-80) was 120 % of control and 121 % of control and 123 % of control, the T/C (dose: 50.0 mg/kg/injection, schedule: Q04DX002 (ip), vehicle: saline with Tween-80) was 115 % of control and 121 % of control and 124 % of control and the T/C [1] was 112 % of control and 122 % of control. The T/C [2] was 122 % of control.
For `O=C(NO)/C(CC(=O)c1cccc(O)c1)=N\O`, the T/C (dose: 60.0 mg/kg/injection, schedule: Q01DX005 (ip), vehicle: saline) was 99 % of control, the T/C (dose: 120.0 mg/kg/injection, schedule: Q01DX005 (ip), vehicle: saline) was 100 % of control and the T/C (dose: 240.0 mg/kg/injection, schedule: Q01DX005 (ip), vehicle: saline) was 105 % of control.
With `CCOc1cccc2c1C(=O)c1cccc(OCC)c1C2(O)C#Cc1ccccc1` (stereo not drawn) the T/C [1] was 90 % of control, the T/C [2] was 87 % of control and the T/C [3] was 86 % of control.
In the case of `COc1ccc(/C=N/NC(=O)C(=O)N/N=C/c2ccc(OC)c(S(=O)(=O)O)c2)cc1S(=O)(=O)O`, the T/C [4] is reported as 102 % of control, the T/C [5] is reported as 104 % of control and the T/C [6] is reported as 109 % of control.
In the case of `CCc1nc(N)nc(N)c1-c1ccc(OC)c(N)c1`, the T/C [7] is reported as 102 % of control and 116 % of control, the T/C [8] is reported as 112 % of control and the T/C [9] is reported as 119 % of control.
For `O=S(=O)(O/C1=C/CCCCCC1)C(F)(F)F`, the T/C (dose: 50.0 mg/kg/injection, schedule: Q01DX009 (ip), vehicle: olive oil, sesame oil, peanut oil) was 97 % of control, the T/C (dose: 100.0 mg/kg/injection, schedule: Q01DX009 (ip), vehicle: olive oil, sesame oil, peanut oil) was 113 % of control and the T/C (dose: 200.0 mg/kg/injection, schedule: Q01DX009 (ip), vehicle: olive oil, sesame oil, peanut oil) was 103 % of control.
With `Cc1ccc(C)c(NC(=O)CCC(=O)C(C#N)c2nc3ccccc3s2)c1` (stereo not drawn) the T/C (dose: 60.0 mg/kg/injection, schedule: Q01DX005 (ip), vehicle: saline with Tween-80) was 103 % of control, the T/C (dose: 120.0 mg/kg/injection, schedule: Q01DX005 (ip), vehicle: saline with Tween-80) was 102 % of control and the T/C (dose: 240.0 mg/kg/injection, schedule: Q01DX005 (ip), vehicle: saline with Tween-80) was 97 % of control.
With `[Pd].c1ccc([PH+](CC[PH+](c2ccccc2)c2ccccc2)c2ccccc2)cc1.c1ccc([PH+](CC[PH+](c2ccccc2)c2ccccc2)c2ccccc2)cc1` the T/C (dose: 30.0 mg/kg/injection, schedule: Q01DX005 (ip), vehicle: saline with Tween-80) was 99 % of control.
`CCOC1(C)CC(c2cc(OC)c(OC)c(OC)c2)c2cc3c(cc2O1)OCO3` (stereo not drawn) was tested, and the T/C [10] was 96 % of control, the T/C [11] was 93 % of control and the T/C (dose: 240.0 mg/kg/injection, schedule: Q01DX005 (ip), vehicle: Klucel (hydroxypropylcellulose) (HPC)) was 92 % of control.
With `CCOC1=N[C@H](C)[C@H](C)N1` the T/C [12] was 100 % of control and the T/C [13] was 103 % of control.
In the case of `CCn1c2c(c3ccccc31)CCSC2(C)CCN(C)C` (stereo not drawn), the T/C (dose: 25.0 mg/kg/injection, schedule: Q01DX009 (ip), vehicle: saline with Tween-80) is reported as 105 % of control, the T/C (dose: 50.0 mg/kg/injection, schedule: Q01DX009 (ip), vehicle: saline with Tween-80) is reported as 96 % of control and the T/C (dose: 100.0 mg/kg/injection, schedule: Q01DX009 (ip), vehicle: saline with Tween-80) is reported as 117 % of control.
For `O=C(NO)c1cc(O)c(O)c(O)c1`, the T/C (dose: 50.0 mg/kg/injection, schedule: Q01DX005 (ip), vehicle: distilled water + Tween-80) was 121 % of control, the T/C (dose: 100.0 mg/kg/injection, schedule: Q01DX009 (ip), vehicle: distilled water + Tween-80) was 168 % of control and the T/C (dose: 200.0 mg/kg/injection, schedule: Q01DX005 (ip), vehicle: distilled water + Tween-80) was 155 % of control. For the same molecule, the T/C (dose: 200.0 mg/kg/injection, schedule: Q01DX009 (ip), vehicle: distilled water + Tween-80) was 197 % of control.
In the case of `CCO/C([O-])=C(\C=N\[n+]1ccccc1C)c1ccccc1`, the T/C [4] is reported as 109 % of control, the T/C [5] is reported as 110 % of control and the T/C [6] is reported as 109 % of control.
In the case of `COc1cc(OC)cc(C2OC3=C(Nc4ccccc4N3)C2=O)c1` (stereo not drawn), the T/C [10] is reported as 93 % of control and the T/C [11] is reported as 89 % of control.
For `O=C(O)CC(=O)O.[Cu+2].[NH-]C1CCCC2CCC[N-]C12` (stereo not drawn), the T/C (dose: 5.0 mg/kg/injection, schedule: Q04DX002 (ip), vehicle: saline) was 93 % of control and the T/C (dose: 10.0 mg/kg/injection, schedule: Q04DX002 (ip), vehicle: saline) was 108 % of control.
`NCCCn1ccc2c3ccccc3nc-2c1` was tested, and the T/C (dose: 12.5 mg/kg/injection, schedule: Q01DX009 (ip), vehicle: water) was 105 % of control, the T/C (dose: 25.0 mg/kg/injection, schedule: Q01DX009 (ip), vehicle: water) was 90 % of control and the T/C (dose: 50.0 mg/kg/injection, schedule: Q01DX009 (ip), vehicle: water) was 104 % of control. For the same molecule, the T/C (dose: 100.0 mg/kg/injection, schedule: Q01DX009 (ip), vehicle: water) was 105 % of control.
For `CN(CCCCCC(=O)O)c1ccncc1`, the T/C [12] was 103 % of control, the T/C [13] was 100 % of control and the T/C (dose: 200.0 mg/kg/injection, schedule: Q01DX005 (ip), vehicle: saline) was 108 % of control.
In the case of `O=P(c1ccccc1)(c1ccccc1)C(O)c1ccncc1` (stereo not drawn), the T/C [14] is reported as 102 % of control, the T/C [15] is reported as 103 % of control and the T/C [16] is reported as 103 % of control.
`Clc1ccc(-n2cnn3c(-c4ccccc4)ncc23)cc1` was tested, and the T/C [1] was 90 % of control, the T/C [2] was 87 % of control and the T/C [3] was 93 % of control.
`CC1CN1C1=C(Cl)C(=O)C(N2CC2C)=C(Cl)C1=O` (stereo not drawn) was tested, and the T/C (dose: 3.12 mg/kg/injection, schedule: Q01DX009 (ip), vehicle: Klucel (hydroxypropylcellulose) (HPC)) was 115 % of control.
`CCCCOC(=O)C1=NNC(=O)C1` was tested, and the T/C (dose: 25.0 mg/kg/injection, schedule: Q01DX009 (ip), vehicle: Klucel (hydroxypropylcellulose) (HPC)) was 115 % of control, the T/C [14] was 108 % of control and the T/C [15] was 112 % of control. For the same molecule, the T/C [16] was 108 % of control.
For `Clc1ccc(-c2csc(NCC3CCCO3)n2)cc1` (stereo not drawn), the T/C [14] was 100 % of control, the T/C [15] was 108 % of control and the T/C [16] was 100 % of control.
`O=c1[nH]c(=O)c2nc3c([N+](=O)[O-])ccc(-c4cccc5ccccc45)c3nc2[nH]1` was tested, and the T/C [4] was 109 % of control and the T/C [5] was 100 % of control.
In the case of `NCCc1ccc(O)c(O)c1`, the T/C (dose: 1.5 mg/kg/injection, schedule: Q01DX009 (ip), vehicle: saline) is reported as 100 % of control and 96 % of control, the T/C (dose: 15.0 mg/kg/injection, schedule: Q01DX009 (ip), vehicle: saline) is reported as 99 % of control and 100 % of control and the T/C (dose: 25.0 mg/kg/injection, schedule: Q01DX009 (ip), vehicle: saline) is reported as 108 % of control. For the same molecule, the T/C (dose: 50.0 mg/kg/injection, schedule: Q01DX009 (ip), vehicle: other) was 101 % of control, the T/C [4] was 107 % of control and 108 % of control and the T/C (dose: 100.0 mg/kg/injection, schedule: Q01DX009 (ip), vehicle: other) was 83 % of control. For the same molecule, the T/C [5] was 101 % of control and 108 % of control, the T/C (dose: 150.0 mg/kg/injection, schedule: Q01DX009 (ip), vehicle: saline) was 123 % of control and the T/C (dose: 200.0 mg/kg/injection, schedule: Q01DX009 (ip), vehicle: other) was 90 % of control. For the same molecule, the T/C [6] was 112 % of control and 115 % of control, the T/C (dose: 300.0 mg/kg/injection, schedule: Q01DX009 (ip), vehicle: saline) was 92 % of control and the T/C (dose: 400.0 mg/kg/injection, schedule: Q01DX009 (ip), vehicle: other) was 83 % of control. The T/C (dose: 400.0 mg/kg/injection, schedule: Q01DX009 (ip), vehicle: saline) was 99 % of control and 121 % of control and the T/C (dose: 600.0 mg/kg/injection, schedule: Q01DX009 (ip), vehicle: saline) was 153 % of control.
With `O=C(CNC(=O)Nc1ccc(C2=NCCN2)cc1)Nc1ccc(C2=NCCN2)cc1` the T/C (dose: 22.0 mg/kg/injection, schedule: Q01DX009 (ip), vehicle: saline with Tween-80) was 95 % of control, the T/C (dose: 33.0 mg/kg/injection, schedule: Q01DX009 (ip), vehicle: saline with Tween-80) was 113 % of control and the T/C (dose: 75.0 mg/kg/injection, schedule: Q01DX009 (ip), vehicle: saline with Tween-80) was 154 % of control.
In the case of `CCNc1cc(N)[n+](CC)c2n[nH]c(/N=C/c3cc(Cl)cc(Cl)c3O)c12`, the T/C [7] is reported as 97 % of control, the T/C [8] is reported as 87 % of control and the T/C [9] is reported as 93 % of control.
